According to publication PMC13575467, “Structural and functional characterisation of a reconstructed ancestral strigolactone receptor” (The Plant Journal, 2026):

Experiments:
AtD14 [1] = molecular target: T1, AtD14 (Arabidopsis thaliana, UniProt Q9SQR3); assay: competition of dYLG hydrolysis; assay type: biochemical; conditions: 5 μM dYLG, 0-50 μM competitor, 100 ng protein
T1 construct: gene D14; E. coli codon-optimised, 6xHis-SUMO fusion (pE-SUMO-Amp) from E. coli Rosetta, Ni-NTA, tag kept in assays
T1 sequence (Q9SQR3 1-267): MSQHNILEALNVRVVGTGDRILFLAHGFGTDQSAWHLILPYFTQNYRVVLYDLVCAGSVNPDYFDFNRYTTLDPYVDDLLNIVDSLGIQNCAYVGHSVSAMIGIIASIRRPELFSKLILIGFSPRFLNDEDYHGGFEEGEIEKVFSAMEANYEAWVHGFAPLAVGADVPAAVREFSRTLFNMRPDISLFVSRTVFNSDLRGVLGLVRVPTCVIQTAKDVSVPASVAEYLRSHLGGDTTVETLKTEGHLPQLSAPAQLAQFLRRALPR

ancD14 (ancestral D14) [2] = molecular target: T2, ancD14 (ancestral D14) (synthetic construct, UniProt Z9A6V6BWX9); assay: differential scanning fluorimetry; assay type: binding; conditions: Tm lowered (destabilisation); ligand 0-200 μM
T2 sequence (Z9A6V6BWX9 1-265): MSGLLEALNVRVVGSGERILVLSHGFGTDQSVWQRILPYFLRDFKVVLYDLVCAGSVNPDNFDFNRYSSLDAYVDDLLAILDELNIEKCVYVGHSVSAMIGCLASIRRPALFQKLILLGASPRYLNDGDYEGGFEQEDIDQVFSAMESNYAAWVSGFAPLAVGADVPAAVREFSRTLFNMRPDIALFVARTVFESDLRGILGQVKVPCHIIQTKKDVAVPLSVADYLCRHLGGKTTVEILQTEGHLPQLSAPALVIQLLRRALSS

AtD14 [3] = molecular target: T1, AtD14; assay: differential scanning fluorimetry; assay type: binding; conditions: Tm lowered (destabilisation); ligand 0-200 μM
ancD14 (ancestral D14) [4] = molecular target: T2, ancD14 (ancestral D14); assay: differential scanning fluorimetry; assay type: binding; conditions: Tm lowered (destabilisation); ligand 0-200 μM; remark: listed apart in the source
AtD14 [5] = molecular target: T1, AtD14; assay: differential scanning fluorimetry; assay type: binding; conditions: Tm lowered (destabilisation); ligand 0-200 μM; remark: listed apart in the source
ancD14 (ancestral D14) [6] = molecular target: T2, ancD14 (ancestral D14); assay: competition of dYLG hydrolysis; assay type: biochemical; conditions: 5 μM dYLG, 0-50 μM competitor, 100 ng protein

CC1=C[C@H](O/C=C2/C(=O)O[C@@H]3c4ccccc4C[C@H]23)OC1=O [GR24^5DS]
IC50 (AtD14 [1]): GR24^5DS was a very effective competitor for AtD14 | dTm (decrease in melting temperature) (ancD14 (ancestral D14) [2]): 6.6 °C | dTm (decrease in melting temperature) (AtD14 [3]): 6.1 °C

CC1=C[C@@H](O/C=C2/C(=O)O[C@H]3c4ccccc4C[C@@H]23)OC1=O [GR24^ent-5DS]
IC50 (AtD14 [1]): AtD14 activity was inhibited by all four enantiomers | dTm (ancD14 (ancestral D14) [4]): albeit with a comparatively muted response to GR24^ ent‐5DS | dTm (AtD14 [5]): AtD14 was thermally destabilised by both GR24^5DS and GR24^ ent‐5DS | IC50 (ancD14 (ancestral D14) [6]): GR24^ ent‐5DS also competed well with ancD14

O=C1C=C[C@@H](O/C=C2/C(=O)O[C@H]3c4ccccc4C[C@@H]23)O1 [dGR24^ent-5DS]
IC50 (AtD14 [1]): AtD14 activity was inhibited by all four enantiomers
